According to PubChem BioAssay AID1918948 (Molecular Pharmacology Branch, DTP, NCI, 2023):
“And” between values parts separate entries of the source, which are not always exact repeats. Equal values may be shown once.

Tested on: K-562 leukemia growth, % test/control
Test: Anticancer human tumor K-562 cell line growth inhibition;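 note: spheroids exposed to compounds for 7 days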;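 for viability, T/C: 100% = DMSO vehicle wells and lower values mean fewer viable cells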
Settings: spheroids with HUVEC and MSC; for viability, T/C: stronger effect = lower value
Summary of the method: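 Multicellular complex spheroids of tumor cells with human endothelial cells (HUVEC) and mesenchymal stem cells; the LSD1 inhibitor iadademstat was combined with standard-of-care or investigational agents. Top concentration at or near clinical Cmax, half-log dilutions; final DMSO ≤0.25%.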

[1] = curve of first compound, second compound 0.1 µM
[2] = curve of first compound, second compound 0.316 µM
[3] = curve of first compound, second compound 1 µM
[4] = curve of first compound, second compound 3.16 µM
[5] = curve of first compound, second compound 10 µM
[6] = second compound 0.1 µM, first compound 0.000316 µM
[7] = second compound 0.1 µM, first compound 0.001 µM
[8] = second compound 0.1 µM, first compound 0.00316 µM
[9] = second compound 0.1 µM, first compound 0.01 µM
[10] = second compound 0.1 µM, first compound 0.0316 µM
[11] = second compound 0.1 µM, first compound 0.1 µM
[12] = second compound 0.316 µM, first compound 0.000316 µM
[13] = second compound 0.316 µM, first compound 0.001 µM
[14] = second compound 0.316 µM, first compound 0.00316 µM
[15] = second compound 0.316 µM, first compound 0.01 µM
[16] = second compound 0.316 µM, first compound 0.0316 µM
[17] = second compound 0.316 µM, first compound 0.1 µM
[18] = second compound 1 µM, first compound 0.000316 µM
[19] = second compound 1 µM, first compound 0.001 µM
[20] = second compound 1 µM, first compound 0.00316 µM
[21] = second compound 1 µM, first compound 0.01 µM
[22] = second compound 1 µM, first compound 0.0316 µM
[23] = second compound 1 µM, first compound 0.1 µM
[24] = second compound 3.16 µM, first compound 0.000316 µM
[25] = second compound 3.16 µM, first compound 0.001 µM
[26] = second compound 3.16 µM, first compound 0.00316 µM
[27] = second compound 3.16 µM, first compound 0.01 µM
[28] = second compound 3.16 µM, first compound 0.0316 µM
[29] = second compound 3.16 µM, first compound 0.1 µM
[30] = second compound 10 µM, first compound 0.000316 µM
[31] = second compound 10 µM, first compound 0.001 µM
[32] = second compound 10 µM, first compound 0.00316 µM
[33] = second compound 10 µM, first compound 0.01 µM
[34] = second compound 10 µM, first compound 0.0316 µM
[35] = second compound 10 µM, first compound 0.1 µM

SMILES | IC50 [1] | IC50 [2] | IC50 [3] | IC50 [4] | IC50 [5] | viability, T/C [8] | viability, T/C [9] | viability, T/C [10] | viability, T/C [11] | viability, T/C [14] | viability, T/C [15] | viability, T/C [16] | viability, T/C [17] | viability, T/C [20] | viability, T/C [21] | viability, T/C [22] | viability, T/C [23] | viability, T/C [26] | viability, T/C [27] | viability, T/C [28] | other results
CC[C@@]1(O)C(=O)OCc2c1cc1n(c2=O)Cc2cc3c(CN(C)C)c(O)ccc3nc2-1 + NC1CC1c1ccc(-c2cccc(O)c2)cc1 | 7.67 nM | 5.74 nM | 5.4 nM | 4.98 nM | 4.19 nM | 61.6% | 50.7% | 18.9% | 8.32% | 60.2% | 38.5% | 13.9% | 5.85% | 59.9% | 36.5% | 12% | 6.28% | 56.5% | 35.1% | 11% | viability, T/C [6]: 113%; viability, T/C [7]: 107%; viability, T/C [12]: 109%; viability, T/C [13]: 106%; viability, T/C [18]: 107%; viability, T/C [19]: 100%; viability, T/C [24]: 104%; viability, T/C [25]: 99.7%; viability, T/C [29]: 6.02%; viability, T/C [30]: 99.4%; viability, T/C [31]: 94.9%; viability, T/C [32]: 52.4%; viability, T/C [33]: 29.4%; viability, T/C [34]: 9.44%; viability, T/C [35]: 3.98%
CC1COCCN1c1cc(-c2ccnn2C)c2ccnc(-c3ccn[nH]3)c2n1 (configuration not stated) + NC1CC1c1ccc(-c2cccc(O)c2)cc1 | < 3.16 nM | < 3.16 nM | < 3.16 nM | < 3.16 nM | < 3.16 nM | 28.6% | 16.1% | 2.71% | 1.86% | 24.4% | 10.3% | 2.23% | 1.78% | 16.4% | 7.71% | 2.17% | 1.57% | 10.6% | 5.99% | 2.11% | viability, T/C (second compound 0.1 µM, first compound 0.316 µM): 2.44%; viability, T/C (second compound 0.1 µM, first compound 1 µM): 2.27%; viability, T/C (second compound 0.316 µM, first compound 0.316 µM): 1.8%; viability, T/C (second compound 0.316 µM, first compound 1 µM): 1.5%; viability, T/C (second compound 1 µM, first compound 0.316 µM): 1.71%; viability, T/C (second compound 1 µM, first compound 1 µM): 1.4%; viability, T/C [29]: 1.71%; viability, T/C (second compound 3.16 µM, first compound 0.316 µM): 1.83%; viability, T/C (second compound 3.16 µM, first compound 1 µM): 1.4%; viability, T/C [32]: 6.46%; viability, T/C [33]: 4.59%; viability, T/C [34]: 2.33%; viability, T/C [35]: 1.51%; viability, T/C (second compound 10 µM, first compound 0.316 µM): 1.64%; viability, T/C (second compound 10 µM, first compound 1 µM): 1.74%
CC(C)CC(NC(=O)CNC(=O)c1cc(Cl)ccc1Cl)B1OC(=O)CC(CC(=O)O)(C(=O)O)O1 (configuration not stated) + NC1CC1c1ccc(-c2cccc(O)c2)cc1 | 14.2 nM | 12.7 nM | 9.67 nM | 7.83 nM | 6.56 nM | 107% | 66.6% | 11.4% | 2.83% | 102% | 60% | 10.7% | 2.8% | 102% | 48.4% | 9.51% | 2.55% | 101% | 36.7% | 9.01% | viability, T/C [6]: 110%; viability, T/C [7]: 105%; viability, T/C [12]: 107%; viability, T/C [13]: 99.7%; viability, T/C [18]: 103%; viability, T/C [19]: 96.1%; viability, T/C [24]: 101%; viability, T/C [25]: 96.6%; viability, T/C [29]: 2.3%; viability, T/C [30]: 95.5%; viability, T/C [31]: 96.8%; viability, T/C [32]: 97.2%; viability, T/C [33]: 23.1%; viability, T/C [34]: 5.77%; viability, T/C [35]: 1.88%
COc1ccc([C@@H](O)c2cc(-c3ncnc4cc(N5CCOCC5)ccc34)c(F)cc2Cl)nn1 | – | – | – | – | – | – | – | – | – | – | – | – | – | – | – | – | – | – | – | – | viability, T/C (compound 0.0316 µM): 100% and 102%; viability, T/C (compound 0.1 µM): 104% and 98.7%; viability, T/C (compound 0.316 µM): 97% and 95.4%; viability, T/C (compound 1 µM): 96.4% and 97%; viability, T/C (compound 3.16 µM): 104% and 99.9%; viability, T/C (compound 10 µM): 40% and 38.6%; IC50 (curve of compound): 8260 nM and 8030 nM
